Source: patent US10851102B2, “Imidazole and triazole containing bicyclic compounds as JAK inhibitors” (THERAVANCE BIOPHARMA R&D IP, LLC, priority 2019, dated 2020)

Test system: IL-2 stimulated pSTAT5 in CD4+ T cells isolated from murine splenocytes (JAK3)
Experiment: Inhibition of IL-2 stimulated pSTAT5 in CD4+ T cells isolated from murine splenocytes
Type: cell-based
Conditions: Mus musculus, IL-2 7 ng/ml, read-out: pIC50, inhibition of IL-2 stimulated pSTAT5 (converted)
Experimental: Assay 3: Inhibition of IL-2 Stimulated pSTAT5 in CD4+ T Cells Isolated from Murine Splenocytes
The potency of test compounds for inhibition of interleukin-2 (IL-2) stimulated STATS phosphorylation was measured in the CD4+ T cells isolated from murine splenocytes using AlphaLisa. Because IL-2 signals through JAK3, this assay provides a measure of JAK3 cellular potency in mouse.
Phosphorylated STATS was measured via the AlphaLISA SureFire Ultra pSTAT5 (Tyr694/699) kit (PerkinElmer).
CD4+ T cells were isolated from murine splenocytes via negative selection on a magnetic column (Miltnyi Biotec) and re-suspended in assay media (phenol red-free DMEM (Life Technologies) supplemented with 10% FBS (ATCC)). Cells were seeded at 50,000 cells/well in assay media (2 μL/well). Compounds were serially diluted in DMSO and diluted to 2× final concentration in assay media. Compound was added (4 μl/well) and the cells incubated at 37° C., 5% CO2 for 1 hour, followed by the addition of IL-2 (R&D Systems; final concentration 7 ng/ml) in pre-warmed assay media (2 μL) for 30 minutes. After cytokine stimulation, cells were lysed with 2 μl of 5× AlphaLisa Lysis Buffer (PerkinElmer). The lysate was shaken at 900 rpm for 10 minutes at room temperature (RT). Phosphorylated STATS was measured via the pSTAT5 AlphaLisa kit (PerkinElmer). Freshly prepared acceptor bead mixture was dispensed onto lysate (5 ul) under green filtered <100 lux light. Plates were shaken at 900 rpm for 2 mins, briefly spun down, and incubated for 2 hrs at RT in the dark. Donor beads were dispensed (5 μl) under green filtered <100 lux light. Plates were shaken at 900 rpm for 2 mins, briefly spun down, and incubated overnight at RT in the dark. Luminescence was measured with excitation at 689 nm and emission at 570 nm using an EnVision plate reader (PerkinElmer) under green filtered <100 lux light.
To determine the inhibitory potency of test compounds in response to IL-2, the average emission intensity of beads bound to pSTATS was measured in primary CD4+ T cells isolated from murine splenocytes. IC50 values were determined from analysis of the inhibition curves of signal intensity vs compound concentration. Data are expressed as pIC50 (negative decadic logarithm IC50) values (mean±standard deviation).

SMILES	IC50 [nM]
C=CC(=O)N1CC(COc2cc(-c3cc(F)c(O)cc3CC)cn3cncc23)C1 [Example 13, 1-(3-(((6-(2-ethyl-5-fluoro-4-hydroxyphenyl)imidazo[1,5-a]pyridin-8-yl)oxy)methyl)azetidin-1-yl)prop-2-en-1-one]	< 1000
C=CC(=O)N1CC(COc2cc(-c3ccc(O)c(Cl)c3)cn3cncc23)C1 [Example 12, 1-(3-(((6-(3-chloro-4-hydroxyphenyl)imidazo[1,5-a]pyridin-8-yl)oxy)methyl)azetidin-1-yl)prop-2-en-1-one]	< 1000
